The target of this assay is T1, mAChR M4 (Homo sapiens, UniProt P08173).
T1 construct: expressed in transfected cells; host or cells: CHO-K1 cells stably transfected with M4 cDNA and chimeric G-protein Gqi5
T1 sequence (P08173 1-479): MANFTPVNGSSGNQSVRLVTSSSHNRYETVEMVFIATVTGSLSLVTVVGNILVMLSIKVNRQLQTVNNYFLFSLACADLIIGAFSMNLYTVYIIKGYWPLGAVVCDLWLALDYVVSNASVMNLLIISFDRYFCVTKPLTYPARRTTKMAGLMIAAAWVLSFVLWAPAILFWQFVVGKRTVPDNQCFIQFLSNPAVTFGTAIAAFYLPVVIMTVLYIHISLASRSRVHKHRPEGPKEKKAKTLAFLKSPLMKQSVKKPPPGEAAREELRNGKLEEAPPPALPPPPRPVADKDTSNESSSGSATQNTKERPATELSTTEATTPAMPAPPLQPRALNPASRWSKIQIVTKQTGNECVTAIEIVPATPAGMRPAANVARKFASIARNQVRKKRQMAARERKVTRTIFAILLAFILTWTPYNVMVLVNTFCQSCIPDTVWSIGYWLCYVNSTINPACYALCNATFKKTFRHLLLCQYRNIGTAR
Nature of the assay: mAChR M4 cell-based functional assay (calcium mobilization, potentiation of EC20 acetylcholine response). As to conditions: for Emax at 30 µM: % ACh maximum at 30 μM; for EC50: mAChR M4 cell-based functional assay, >10,000 estimated for low potency compounds without plateau, read-out: EC50.

The term Emax denotes the size of the effect at its maximum, as opposed to the concentration needed. Broadly, the EC50 is the concentration needed to bring the measured effect to its halfway point. Take `Cc1nnc2sc(C(=O)NCc3ccc(Br)cc3)c(N)c2c1C` [Example B448, 5-amino-N-(4-bromobenzyl)-3,4-dimethylthieno[2,3-c]pyridazine-6-carboxamide]: the Emax at 30 µM is 75% and the EC50 was 18 nM.

As to `Cc1nnc2sc(C(=O)NCc3ccc(N(C)C)cc3)c(N)c2c1C` [Example B449], the Emax at 30 µM is 71% and the EC50 was 69 nM.

`Cc1nnc2sc(C(=O)NCc3ccc(S(=O)(=O)N(C)C)cc3)c(N)c2c1C` [Example B450]: the Emax at 30 µM is 65% and the EC50 is 65 nM.

In the case of `Cc1nnc2sc(C(=O)NCc3ccc(C#N)c(F)c3)c(N)c2c1C` [Example B451], the Emax at 30 µM was found to be 66% and the EC50 is 340 nM.

For `Cc1nnc2sc(C(=O)NCc3ccnc(F)c3)c(N)c2c1C` [Example B452], the Emax at 30 µM was 59% and the EC50 was 240 nM.

As for `Cc1nnc2sc(C(=O)NCc3ccc(-c4cccc5cccnc45)cc3)c(N)c2c1C` [Example B453], the Emax at 30 µM was determined as 74% and the EC50 is 240 nM.

As to `Cc1nnc2sc(C(=O)NCc3ccc(-c4cccnc4F)cc3)c(N)c2c1C` [Example B454], the Emax at 30 µM was 66% and the EC50 is 19 nM.

Take `Cc1nnc2sc(C(=O)NCc3ccc(-c4cc(F)nc(F)c4)cc3)c(N)c2c1C` [Example B455]: the Emax at 30 µM came to 64% and the EC50 was 27 nM.

As for `COc1ncccc1-c1ccc(CNC(=O)c2sc3nnc(C)c(C)c3c2N)cc1` [Example B456], the Emax at 30 µM was determined as 68% and the EC50 was 99 nM.

With `Cc1nnc2sc(C(=O)NCc3ccc(-c4ccncc4)cc3)c(N)c2c1C` [Example B457], the Emax at 30 µM amounted to 75% and the EC50 was 19 nM.

Turning to `Cc1cc(-c2ccc(CNC(=O)c3sc4nnc(C)c(C)c4c3N)cc2)cnc1Cl` [Example B458], the Emax at 30 µM was 82% and the EC50 was 32 nM.

For the compound `Cc1nnc2sc(C(=O)NCc3ccc(-c4ccc(F)nc4)cc3)c(N)c2c1C` [Example B459], the Emax at 30 µM turned out to be 88% and the half-maximal effective concentration (EC50) was 15 nM.

On to `Cc1nnc2sc(C(=O)NCc3ccc(-c4cccs4)cc3)c(N)c2c1C` [Example B460], for which the maximum response (Emax) at 30 µM is 76% and the EC50 is 28 nM.

On to `Cc1nnc2sc(C(=O)NCc3ccc(-c4ccnc(F)c4)cc3)c(N)c2c1C` [Example B461], for which the Emax at 30 µM worked out at 84% and the EC50 is 23 nM.

Consider `Cc1nnc2sc(C(=O)NCc3ccc(-c4cncnc4)cc3)c(N)c2c1C` [Example B462], for which the Emax at 30 µM was determined as 65% and the EC50 is 38 nM.

As to `Cc1nnc2sc(C(=O)NCc3ccc(-c4ccc5occc5c4)cc3)c(N)c2c1C` [Example B463], the Emax at 30 µM worked out at 70% and the EC50 was 150 nM.

Consider `Cc1nnc2sc(C(=O)NCc3ccc(-c4cccnc4)cc3)c(N)c2c1C` [Example B464], for which the Emax at 30 µM was found to be 63% and the EC50 is 11 nM.

`Cc1nnc2sc(C(=O)NCc3ccc([S+]([O-])C(F)F)c(F)c3)c(N)c2c1C` (stereo not shown) [Example B465]: the Emax at 30 µM came to 61% and the EC50 was 15 nM.

Turning to `Cc1nnc2sc(C(=O)NCc3ccn(C)c(=O)c3)c(N)c2c1C` [Example B466], the Emax at 30 µM is 60% and the EC50 was 1200 nM.

As for `Cc1nnc2sc(C(=O)NCc3ccnc(C#N)c3)c(N)c2c1C` [Example B467], the Emax at 30 µM was 69% and the EC50 is 1200 nM.

`Cc1nnc2sc(C(=O)NCc3ccc(S(=O)(=O)C(F)F)c(F)c3)c(N)c2c1C` [Example B468]: the Emax at 30 µM worked out at 85% and the EC50 is 16 nM.

On to `Cc1nnc2sc(C(=O)NCc3cccc(-c4ccccc4)c3)c(N)c2c1C` [Example B469], for which the Emax at 30 µM is 64% and the EC50 was 430 nM.

Take `Cc1ccc(CNC(=O)c2sc3nnc(C)c(C)c3c2N)nc1` [Example B470]: the Emax at 30 µM came to 48% and the EC50 is 510 nM.

As for `Cc1nnc2sc(C(=O)NCc3ccc(Br)cn3)c(N)c2c1C` [Example B471], the Emax at 30 µM worked out at 60% and the EC50 is 390 nM.

For the compound `Cc1nnc2sc(C(=O)NCc3ccc(-c4ccccc4)cc3)c(N)c2c1C` [Example B472], the Emax at 30 µM is 64% and the EC50 is 230 nM.

Turning to `Cc1nnc2sc(C(=O)NCc3ccc(-c4ccc5[nH]ncc5c4C)cc3)c(N)c2c1C` [Example B473], the Emax at 30 µM came to 61% and the EC50 was 89 nM.

For `Cc1nnc2sc(C(=O)NCc3ccc(-c4cc(C)c5[nH]ncc5c4)cc3)c(N)c2c1C` [Example B474], the Emax at 30 µM amounted to 82% and the EC50 was 460 nM.

As for `COc1ccc(CNC(=O)c2sc3nnc(C)c(C)c3c2N)c(F)c1` [Example B475], the Emax at 30 µM was 61% and the EC50 is 24 nM.

Consider `Cc1nnc2sc(C(=O)NCc3ccc([S+]([O-])C(F)(F)F)cc3)c(N)c2c1C` (stereo not shown) [Example B476], for which the Emax at 30 µM was 66% and the EC50 was 1600 nM.

For `[2H]C([2H])(NC(=O)c1sc2nnc(C)c(C)c2c1N)c1ccc(S(=O)(=O)C(F)F)cc1` [Example B477], the Emax at 30 µM came to 74% and the EC50 is 23 nM.

`Cc1nnc2sc(C(=O)NCc3ccc([S+]([O-])C(F)F)cc3)c(N)c2c1C` (stereo not shown) [Example B478]: the Emax at 30 µM was found to be 71% and the EC50 is 23 nM.

Turning to `Cc1nnc2sc(C(=O)NC3CN(c4cccnc4)C3)c(N)c2c1C` [Example B479], the Emax at 30 µM came to 67% and the EC50 is 12 nM.

Consider `Cc1nnc2sc(C(=O)NCc3ccc(OC(F)F)cn3)c(N)c2c1C` [Example B480], for which the Emax at 30 µM is 74% and the EC50 is > 10000 nM.

Consider `Cc1nnc2sc(C(=O)NC3CN(c4ccccc4)C3)c(N)c2c1C` [Example B481], for which the Emax at 30 µM was 62% and the EC50 was 12 nM.

Consider `COc1ccc(CNC(=O)c2sc3nnc(C)c(C)c3c2N)cc1Br` [Example B482], for which the Emax at 30 µM stood at 67% and the EC50 was 87 nM.

For `Cc1nnc2sc(C(=O)NCc3ccc(-n4ccccc4=O)c(F)c3)c(N)c2c1C` [Example B483], the Emax at 30 µM worked out at 69% and the EC50 is 47 nM.

`Cc1cc(-c2ccc(CNC(=O)c3sc4nnc(C)c(C)c4c3N)cc2)cnc1F` [Example B484]: the Emax at 30 µM came out at 63% and the EC50 is 110 nM.

Turning to `COc1ncc(-c2ccc(CNC(=O)c3sc4nnc(C)c(C)c4c3N)cc2)cn1` [Example B485], the Emax at 30 µM stood at 58% and the concentration for a half-maximal effect (EC50) is 48 nM.

Turning to `COc1ccc(-c2ccc(CNC(=O)c3sc4nnc(C)c(C)c4c3N)cc2)cn1` [Example B486], the Emax at 30 µM is 61% and the 50% effective concentration (EC50) is 230 nM.

`Cc1nnc2sc(C(=O)NCc3ccc(-c4cncc(F)c4)cc3)c(N)c2c1C` [Example B487]: the Emax at 30 µM turned out to be 71% and the EC50 was 37 nM.

As to `COc1cncc(-c2ccc(CNC(=O)c3sc4nnc(C)c(C)c4c3N)cc2)c1` [Example B488], the Emax at 30 µM came to 76% and the EC50 is 49 nM.

In the case of `Cc1nnc2sc(C(=O)NCc3ccc(S(=O)(=O)C(F)F)c(Cl)c3)c(N)c2c1C` [Example B489], the Emax at 30 µM came out at 73% and the concentration for a half-maximal effect (EC50) is 35 nM.

Consider `Cc1nnc2sc(C(=O)NCc3ccc(-n4ccnc4)cc3)c(N)c2c1C` [Example B490], for which the Emax at 30 µM stood at 61% and the EC50 is 20 nM.

On to `Cc1nnc2sc(C(=O)NCc3ccc(CN4CCCC4)cc3)c(N)c2c1C` [Example B492], for which the Emax at 30 µM is 76% and the EC50 is 38 nM.

In the case of `Cc1nnc2sc(C(=O)NCc3ccc(CN4CCSCC4)cc3)c(N)c2c1C` [Example B493], the Emax at 30 µM stood at 68% and the EC50 was 82 nM.

On to `Cc1nnc2sc(C(=O)NCc3ccc(-c4ccccc4O)cc3)c(N)c2c1C` [Example B494], for which the Emax at 30 µM was determined as 75% and the EC50 was 190 nM.

`Cc1nnc2sc(C(=O)NCc3ccc(-c4ccc(F)nc4F)cc3)c(N)c2c1C` [Example B495]: the maximum response (Emax) at 30 µM was determined as 72% and the EC50 is 210 nM.

As to `Cc1nnc2sc(C(=O)NCc3ccc(-c4ccc5nccnc5c4)cc3)c(N)c2c1C` [Example B496], the Emax at 30 µM came to 66% and the EC50 was 250 nM.

As for `Cc1nnc2sc(C(=O)NCc3ccc(-c4cnc5ccccc5c4)cc3)c(N)c2c1C` [Example B497], the Emax at 30 µM came out at 46% and the EC50 was 710 nM.

As for `Cc1cc(F)ncc1-c1ccc(CNC(=O)c2sc3nnc(C)c(C)c3c2N)cc1` [Example B498], the Emax at 30 µM is 82% and the EC50 is 330 nM.

For `Cc1cncc(-c2ccc(CNC(=O)c3sc4nnc(C)c(C)c4c3N)cc2)c1` [Example B499], the Emax at 30 µM stood at 71% and the EC50 was 200 nM.

In the case of `Cc1nnc2sc(C(=O)NCc3ccc(-c4cc(O)ccc4Cl)cc3)c(N)c2c1C` [Example B500], the Emax at 30 µM was found to be 72% and the EC50 was 1800 nM.

On to `Cc1nnc2sc(C(=O)NCc3ccc(-c4ccc5c(c4)OCO5)cc3)c(N)c2c1C` [Example B501], for which the Emax at 30 µM stood at 44% and the EC50 was 990 nM.

These data come from US9868746B2, “Substituted 5-aminothieno[2,3-C]pyridazine-6-carboxamide analogs as positive allosteric modulators of the muscarinic acetylcholine receptor M4” (Vanderbilt University, priority 2012, dated 2018).
